In patent US20260098008A1, “COVALENT, CHEMOGENETIC ACTIVATORS FOR K2P POTASSIUM CHANNELS AND USES THEREOF” (THE REGENTS OF THE UNIVERSITY OF CALIFORNIA, priority 2022, published 2026):
Where a chain is given by its changes, count along the chain named.

Tests used:
Assay type in all cases: cell-based
[1] = biological target: T1, CG*-CG* tandem K2P2.1 (TREK-1) (Mus musculus, UniProt P97438, S146C); assay: TEVC in Xenopus oocytes, tandem channels; conditions: 20 μM, sequential application
T1 construct: expressed in transfected cells; host or cells: Xenopus laevis oocytes injected with mRNA
T1 sequence (P97438 1-411 isoform P97438-2 S131C) 1: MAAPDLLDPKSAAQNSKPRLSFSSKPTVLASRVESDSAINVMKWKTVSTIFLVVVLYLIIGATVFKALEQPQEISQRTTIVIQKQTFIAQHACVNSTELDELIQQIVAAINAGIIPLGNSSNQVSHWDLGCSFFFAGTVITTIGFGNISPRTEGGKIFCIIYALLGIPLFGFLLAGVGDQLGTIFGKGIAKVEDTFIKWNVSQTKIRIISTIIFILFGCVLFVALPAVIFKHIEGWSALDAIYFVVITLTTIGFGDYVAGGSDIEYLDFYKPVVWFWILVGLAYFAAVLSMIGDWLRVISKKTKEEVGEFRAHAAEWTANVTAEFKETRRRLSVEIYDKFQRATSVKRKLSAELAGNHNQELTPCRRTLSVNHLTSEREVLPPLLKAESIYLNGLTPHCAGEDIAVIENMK
T1 sequence (P97438 1-411 isoform P97438-2 S131C) 2: T1 sequence (P97438 1-411 isoform P97438-2 S131C) 1
Excerpt: (§1) Mouse K2P2.1 (TREK-1) (Genbank accession number: NP_034737.2), mouse K2P10.1 (TREK-2) (NM_001316665.1), mouse K2P4.1 (TRAAK) (NM_008431.3), human K2P4.1 (TRAAK) (NM_033310.2) and mouse K2P18.1(TRESK) (NM_207261.3) were used for this study. Point mutations were introduced by site-directed mutagenesis using custom primers and confirmed by sequencing before use. For studies using Xenopus oocytes, K2P channels were subcloned into a previously reported pGEMHE/pMO vector (46). For expression in HEK293 cells, mouse K2P2.1 (TREK-1) and mutants were expressed from a previously described pIRES2-EGFP vector in HEK293 cells (46,47). K2P2.1 (TREK-1) tandems were constructed by connecting the open reading frames for the individual subunits with a linker encoding the […] (SEQ ID NO: 19) sequence. Tandems used for HEK293 cells included an N-terminal HA tag ([…] (SEQ ID NO: 20)) on the first subunit.
(§2) Xenopus laevis oocytes were harvested according to UCSF IACUC Protocol AN129690 and digested using collagenase (Worthington Biochemical Corporation, #LS004183, 0.8-1.0 mg/mL) in Ca^21-free ND96 (96 mM NaCl, 2 mM KCl, 3.8 mM MgCl2, 5 mM HEPES pH 7.4) immediately post-harvest, as previously reported (31,33). Oocytes were maintained at 18° C. in ND96 (96 mM NaCl, 2 mM KCl, 1.8 mM CaCl2, 2 mM MgCl2, 5 mM HEPES pH 7.4) supplemented with antibiotics (100 units mL^−1 penicillin, 100 μg mL^−1 streptomycin, 50 μg mL^−1 gentimycin) and used for experiments within one week of harvest.
(§3) Defolliculated stage V-VI oocytes were microinjected with 0.5-36 ng mRNA and currents were recorded within 16-48 h hours of injection.
(§4) For recordings, oocytes were impaled with borosilicate recording microelectrodes (0.4-2.0 MΩ resistance) backfilled with 3 M KCl and were subjected to constant perfusion of ND96 at a rate of 3 ml min^−1. Recording solutions containing K2P activators were prepared immediately prior to use from DMSO stocks (20-100 mM), with final DMSO concentrations of 0.1%. Currents were evoked from a −80 mV holding potential followed by a 300 ms ramp from −150 mV to +50 mV. Data were recorded using a GeneClamp 500B amplifier (MDS Analytical Technologies) controlled by pCLAMP8 software (Molecular Devices), and digitized at 1 kHz using Digidata 1332 Å digitizer (MDS Analytical Technologies). For each recording, control solution (ND96) was perfused over a single oocyte until current was stable before switching to solutions containing the test compounds at various concentrations. Representative traces and dose response plots were generated in GraphPad Prism 9.

[2] = biological target: T2, CG*-WT tandem K2P2.1 (TREK-1) (Mus musculus, UniProt P97438, S146C); assay: TEVC in Xenopus oocytes, tandem channels; conditions: 20 μM; for Fold-activation (I activator/I control): sequential application, Xenopus oocytes
T2 construct: expressed in transfected cells; host or cells: Xenopus laevis oocytes injected with mRNA
T2 sequence (P97438 1-411 isoform P97438-2 S131C): T1 sequence (P97438 1-411 isoform P97438-2 S131C) 1
T2 sequence (P97438 1-411 isoform P97438-2): T1 sequence (P97438 1-411 isoform P97438-2 S131C) 1 with C131S
Excerpt: as §1, §2, §3, §4

[3] = biological target: T3, WT-CG* tandem K2P2.1 (TREK-1) (Mus musculus, UniProt P97438, S146C); assay: TEVC in Xenopus oocytes, tandem channels; conditions: 20 μM; for Fold-activation (I activator/I control): sequential application, Xenopus oocytes
T3 construct: expressed in transfected cells; host or cells: Xenopus laevis oocytes injected with mRNA
T3 sequence (P97438 1-411 isoform P97438-2): T1 sequence (P97438 1-411 isoform P97438-2 S131C) 1 with C131S
T3 sequence (P97438 1-411 isoform P97438-2 S131C): T1 sequence (P97438 1-411 isoform P97438-2 S131C) 1
Excerpt: as §1, §2, §3, §4

[4] = biological target: T4, WT-WT tandem K2P2.1 (TREK-1) (Mus musculus, UniProt P97438); assay: TEVC in Xenopus oocytes, tandem channels; conditions: 20 μM, sequential application
T4 construct: expressed in transfected cells; host or cells: Xenopus laevis oocytes injected with mRNA
T4 sequence (P97438 1-411 isoform P97438-2) 1: T1 sequence (P97438 1-411 isoform P97438-2 S131C) 1 with C131S
T4 sequence (P97438 1-411 isoform P97438-2) 2: T1 sequence (P97438 1-411 isoform P97438-2 S131C) 1 with C131S
Excerpt: as §1, §2, §3, §4

K2P18.1 (TRESK)^CG* = biological target: T5, K2P18.1 (TRESK)^CG* (Mus musculus, UniProt Q6VV64, S116C); assay: TEVC in Xenopus oocytes; conditions: 20 μM
T5 construct: expressed in transfected cells; host or cells: Xenopus laevis oocytes injected with mRNA
T5 sequence (Q6VV64 1-394 S116C): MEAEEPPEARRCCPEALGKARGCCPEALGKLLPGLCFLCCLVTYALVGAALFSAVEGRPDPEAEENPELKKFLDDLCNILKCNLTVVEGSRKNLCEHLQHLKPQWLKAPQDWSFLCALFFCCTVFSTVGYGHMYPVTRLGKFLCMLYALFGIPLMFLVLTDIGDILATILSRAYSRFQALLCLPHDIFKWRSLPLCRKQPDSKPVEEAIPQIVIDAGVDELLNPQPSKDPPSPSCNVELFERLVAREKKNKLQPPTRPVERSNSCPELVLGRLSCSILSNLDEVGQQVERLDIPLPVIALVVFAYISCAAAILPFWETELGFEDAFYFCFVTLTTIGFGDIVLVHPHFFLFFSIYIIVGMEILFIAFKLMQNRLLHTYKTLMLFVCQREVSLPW

| SMILES | Fold-activation (I activator/I control) [1] | Fold-activation relative to activation of the CG*-CG* homodimer [2] | Fold-activation (I activator/I control) [2] | Fold-activation relative to activation of the CG*-CG* homodimer [3] | Fold-activation (I activator/I control) [3] | Fold-activation (I activator/I control) [4] | Activation of channel (K2P18.1 (TRESK)^CG*) |
| --- | --- | --- | --- | --- | --- | --- | --- |
| O=C(NCc1ccc(Cl)cc1Cl)c1ccc(N2C(=O)C=CC2=O)cc1 [CAT335] | 14.7 ± 0.9 fold | 60-80% | 8.9 ± 1.1 fold | 60-80% | 11.5 ± 1.1 fold | 1.37 ± 0.07 fold | not activated |
| CS(=O)(=O)Nc1ccc(C(=O)NCc2ccc(Cl)cc2Cl)cc1 [ML335, reference compound] | 4.5±0.3 fold | – | 5.0±0.5 fold | – | 5.6 ± 0.4 fold | 6.8 ± 0.5 fold | – |
